The text below walks through data of ChEMBL document CHEMBL6177955, “Design, synthesis and biological evaluation of Golgi-targeting anion transporters as inducers of Golgiphagy and apoptosis in cancer cells” (Eur J Med Chem, 2025).

In one assay the test system is MCF7. Briefly: Antiproliferative activity against human MCF7 cells by MTT assay. The class given is functional, cell-based.
Assay [1] deals with HepG2. The experiment in a line: Antiproliferative activity against human HepG2 cells by MTT assay. It counts as functional, cell-based. In general terms: Tetrazolium assays rely on reduction of a dye to a coloured formazan, in cell work by metabolically active cells.
The subject of assay [2] is Lipid bilayer. The experiment in a line: Vesicular anionophoric activity in large unilamellar vesicle membrane derived from egg-yolk L-alpha-phosphatidylcholine assessed as induction of relative efflux of chloride ions measured up to 300 seconds by using chloride-selective electrode.
In a further assay the test system is HT-29. The experiment in a line: Antiproliferative activity against human HT-29 cells by MTT assay. The class given is functional, cell-based.
Assay [3] has as its system Lipid bilayer. The experiment in a line: Vesicular anionophoric activity in Bulky nitrobenzene membrane assessed as induction of relative efflux of chloride ions measured up to 100 hrs by using chloride-selective electrode.
The subject of assay [4] is HepG2. Briefly: Suppression of Golgi structural and functional protein expression in human HepG2 cells assessed as decrease in GM130 protein expression at 20 uM measured after 48 hrs incubation by Western blot analysis. The class given is cell-based.
Assay [5] deals with Lipid bilayer. Briefly: Vesicular anionophoric activity in large unilamellar vesicle membrane derived from egg-yolk L-alpha-phosphatidylcholine assessed as induction of relative efflux of chloride ions in presence of cesium (Cs+) measured up to 300 seconds by using chloride-selective electrode. Conditions: time <= 300.0 sec.
For a further assay, the system named is HCT-8. Briefly: Antiproliferative activity against human HCT-8 cells by MTT assay. It counts as functional, cell-based.
The subject of assay [6] is Lipid bilayer. The experiment in a line: Vesicular anionophoric activity in large unilamellar vesicle membrane derived from egg-yolk L-alpha-phosphatidylcholine assessed as induction of relative efflux of chloride ions in presence of potassium (K+) measured up to 300 seconds by using chloride-selective electrode. Conditions: time <= 300.0 sec.
A further assay deals with A2780. Briefly: Antiproliferative activity against human A2780 cells by MTT assay. The class given is functional, cell-based.
The test system of assay [7] is HepG2. Briefly: Suppression of Golgi structural and functional protein expression in human HepG2 cells assessed as decrease in GRASP55 protein expression at 20 uM measured after 48 hrs incubation by Western blot analysis. It counts as cell-based. (In general: In western blotting, separated proteins are transferred to a membrane and probed.)
For assay [8], the system named is HepG2. Briefly: Disruption of homeostasis of chloride anions in golgi apparatus of human HepG2 cells assessed as increase in fluorescence intensity of 6-methoxy-1-(2-oxo-2-((4-sulfamoylphenyl)amino)ethyl)quinolin-1-ium Bromide measured after 12 hts by CLSM imaging analysis. It counts as functional, cell-based.
The subject of assay [9] is Lipid bilayer. The experiment in a line: Vesicular anionophoric activity in large unilamellar vesicle membrane derived from egg-yolk L-alpha-phosphatidylcholine assessed as induction of relative efflux of chloride ions in presence of lithium (Li+) measured up to 300 seconds by using chloride-selective electrode. To be noted: time <= 300.0 sec.
Assay [10] deals with Lipid bilayer. Briefly: Vesicular anionophoric activity in large unilamellar vesicle membrane derived from egg-yolk L-alpha-phosphatidylcholine assessed as induction of relative efflux of chloride ions in presence of rubidium (Rb+) measured up to 300 seconds by using chloride-selective electrode. Conditions: time <= 300.0 sec.
For assay [11], the system named is Lipid bilayer. Briefly: Vesicular anionophoric activity in large unilamellar vesicle membrane derived from egg-yolk L-alpha-phosphatidylcholine assessed as induction of relative efflux of chloride ions in presence of sodium (Na+) measured up to 300 seconds by using chloride-selective electrode. To be noted: time <= 300.0 sec.

Activity calls are given as the source filed them. The rule behind the calls is not given here.

On to `NS(=O)(=O)c1ccc(NC(=O)CCCCCNc2c(Nc3ccccc3)c(=O)c2=O)cc1`, for which the IC50 in the assay with MCF7 turned out to be 28.5 µM; in the assay on HepG2 [1], 26.7 µM; in the assay on HT-29, 29.6 µM; in the assay on HCT-8, 22.7 µM; in the assay with A2780, 46.9 µM. Besides, the EC50 with Lipid bilayer [2] was determined as 9.35 mol%; in the assay with HepG2 [8], 31.1 µM. For the same molecule, the Activity result in the assay on Lipid bilayer [3] was “Active; Compound Exhibit Anion Transport Activity Most Probably Through Carrier Mechanism”. Also, the outcome in the assay on HepG2 [4], with Lipid bilayer [5], in the assay on Lipid bilayer [6], with HepG2 [7], with Lipid bilayer [9] and in the assay with Lipid bilayer [10] was Active. For the same molecule, in the assay with Lipid bilayer [11], the outcome was Active.

For orientation: IC50 means the concentration that inhibits the measured activity by half.
